# Tests used:
# [1] = tested on: strains having mutations of 511 (Leu>Pro), 516 (Asp>Tyr), 516 (Asp>Val), and 522 (Ser>Leu); settings: strains with mutations 511 (Leu>Pro); cited from earlier work
# [2] = tested on: Mycobacterium tuberculosis; format: cell-based
smiles,measurement,setting,value
"CO[C@H]1/C=C/O[C@@]2(C)Oc3c(C)c(O)c4c(c3C2=O)C2=NC3(CCN(CC(C)C)CC3)NC2=C(NC(=O)/C(C)=C\C=C\[C@H](C)[C@H](O)[C@@H](C)[C@@H](O)[C@@H](C)[C@H](OC(C)=O)[C@@H]1C)C4=O [rifabutin, Rifabutin]",resistance classification,[1],low-level resistance
same,rifabutin MIC,[1],≤ 5 µg/mL
same,drug-susceptibility test result,[2],resistance

# Reference: patent US20040038233A1, “Diagnosis kit for mycobacterium species indentification and drug-resistance detection and manufacturing method thereof” (priority 2000, published 2004)
